How the values were obtained:
Assay type in all cases: in vivo, C57BL/6J Mäuse
Lewis-Lungen-Karzinom = assay: Spontaneous (full) metastasis of subcutaneously injected Lewis lung carcinoma (lung tumour colonies) in mice; details: 0.08 mg daily s.c.
Source text: (§1) Wie bereits weiter oben festgestellt wurde, ist die Metastase […], die durch eine Reihe komplizierter Vorgänge dargestellt wird. Gegenwärtig finden zwei "Modell"-Systeme für die Untersuchung der in vivo-Metastase verbreitete Anwendung. Das erste Modellsystem umfaßt die subkutane Injektion der Tumorzellen in das Tier. Die subkutane Injektion der Tumorzellen und anschließende Entwicklung eines Primärtumors, gefolgt von spontaner Metastase, wird als "volle" Metastase betrachtet. Ein anderes Modellsystem umfaßt die Injektion der Tumorzellen durch die Schwanzvene. In Anbetracht der Komplexität der Metastase gilt die Schwanzvenen-Injektion als künstliches und nur partielles Modellsystem, da es nur die Vorgänge während des letzteren Teils der Metastase wiedergibt. Das Schwanzvenen-Modellsystem gilt jedoch auch als außerordentlich günstig im Hinblick auf eine Standardisierung der Versuchsbedingungen [vgl."Methods in Cancer Research", Kapitel VII, Academic Press, Inc., 1978].
Als Kontrolltiere wurden (unbehandelte) C57B1/6J-Mäuse nach folgender Arbeitsweise auf volle Metastase untersucht. Zellsuspensionen der B-16 - und 3LL-Karzinom-Zellen, die wie oben unter A und B beschrieben erhalten worden waren, wurden subkutan in die rechte Achselhöhlenregion der männlichen C57BL/6J-Mäuse injiziert (0,66 mm- = 26 gauge -Nadel; 0,2 ml). […]

[1] = tested on: B-16a-amelanotischen Melanom-Zellen; assay: Metastasis of tail-vein injected B-16a melanoma cells (lung tumour colonies) in mice; details: 5 x 10^4 cells i.v., mean ± SEM, n = 6
Source text: as §1
(§2) Als Kontrolltiere wurden (unbehandelte) C57B1/6J-Mäuse nach folgender Arbeitsweise auf volle Metastase untersucht. Zellsuspensionen der B-16 - und 3LL-Karzinom-Zellen, die wie oben unter A und B beschrieben erhalten worden waren, wurden subkutan in die rechte Achselhöhlenregion der männlichen C57BL/6J-Mäuse injiziert (0,66 mm- = 26 gauge -Nadel; 0,2 ml). Injiziert wurden verschiedene Mengen der Zellsuspensionen im Bereich von 1 x 10^5 bis 1 x 10^6 Zellen. Versuche zur partiellen Metastase wurden in der Weise durchgeführt, daß Tumorzellen über die Schwanzvene in die (unbehandelten) Kontroll-Mäuse injiziert wurden. Die Tiere wurden unter identischen Bedingungen der Temperatur, Lichteinwirkungsdauer, Ernährung etc. gehalten. Nach einem Beobachtungszeitraum von 17 bis 30 Tagen wurden die für die volle Metastase und für die partielle Metastase verwendeten Tiere getötet, und die Lungen, Leber, Nieren, Milz und Gehirn-Gewebe wurde entnommen.
(§3) Das entnommene Gewebe wurde in Bouin-Lösung fixiert.
(§4) Die Zahl der metastatischen Knötchen in jedem Organ wurde mit Hilfe eines Bausch-und-Lomb Stereo-Zoom-Mikroskops bestimmt. Die Untersuchung der Kontroll- Mäuse auf metastatische Knötchen ergab bei 100 % der Tiere positive Befunde in bezug auf metastatische Lungentumoren; die Inkubationszeit für die Erzeugung solcher Metastasen betrug für die 3LL-Tumorzellen 17 bis 21 Tage und für die B-16 a -Tumorzellen 23 bis 30 Tage. In Leber, Nieren, Milz oder Gehirn-Gewebe wurden keine sichtbaren Knötchen beobachtet.
3 mg 3-Methyl-1-[2-(2-naphthyloxy)-ethyl]-2-pyrazolin-5-on wurden in 0,6 ml absolutem Ethylalkohol suspendiert. Das suspendierte Pyrazolon wurde durch Einstellen des pH auf 9,5 mit NaOH gelöst. […]

[2] = tested on: B-16a-amelanotischem Melanom; assay: Spontaneous (full) metastasis of subcutaneously injected B-16a melanoma (lung tumour colonies) in mice; details: for Lungen-Tumor-Kolonien B-16a-Zellen: 1,8 x 10^5 cells s.c., killed day 25, mean ± SEM; for Lungen-Tumor-Kolonien B-16a-Zellen (fraction in brackets): bracketed fraction
Source text: as §1, §2, §3, §4
Die Wirkung der Verabreichung der Pyrazolon-Verbindung über einen längeren Zeitraum hinweg auf die Zahl der metastatischen Lungen-Kolonien des B-16 a und des Lewis-Lungen-Karzinoms wurde wie nachstehend beschrieben bestimmt.
3 mg 3-Methyl-1-[2-(2-naphthyloxy)-ethyl]-2-pyrazolin-5-on wurden in 0,6 ml Ethylalkohol gelöst, und die Lösung wurde mit konzentrierter Natronlauge auf pH 9,5 eingestellt.
Syngeneischen C57BL/6J Wirts-Mäusen wurde eine Suspension von 1,8 x 10^5 B-16 a -Zellen subkutan injiziert, die wie vorstehend beschrieben hergestellt wurde. Einer anderen Reihe syngeneischer C57BL/6J Wirts-Mäuse wurde eine Suspension von 1 x 10^5 Lewis-Lungen-Karzinom-Zellen, erhalten wie vorstehend beschrieben, subkutan injiziert. […] Die Kontroll-Mäuse und die behandelten Mäuse wurden unter identischen Bedingungen der Temperatur, Lichteinwirkungsdauer, Ernährung etc. gehalten. Die Mäuse, die die B-16 -Tumorzellen injiziert erhalten hatten wurden 25 Tage nach der Injektion der Tumorzellen getötet; die Mäuse, denen die Lewis-Lungen-Karzinom-Zellen injiziert worden waren, wurden 21 Tage nach der Injektion der Tumorzellen getötet.

## CC1=NN(CCOc2ccc3ccccc3c2)C(=O)C1 [3-Methyl-1-[2-(2-naphthyloxy)-ethyl]-2-pyrazolin-5-on]
Lewis-Lungen-Karzinom; 1 x 10^5 cells s.c., killed day 21, mean ± SEM
  Lungen-Tumor-Kolonien Lewis-Lungen-Zellen: 0.8 ± 0.5
Lewis-Lungen-Karzinom; bracketed fraction
  Lungen-Tumor-Kolonien Lewis-Lungen-Zellen (fraction in brackets): 2/12
[1]; 0.02 mg/mouse s.c. daily for 3 days before tumour cell injection, lungs 14 days later
  Lungen-Tumor-Kolonien: 19.3 ± 7.5
[1]; 0.08 mg, second line of the table (presumably injected 1 h before the tumour cells)
  Lungen-Tumor-Kolonien: 65 ± 36
[1]; 0.08 mg/mouse s.c. daily for 3 days before tumour cell injection, lungs 14 days later
  Lungen-Tumor-Kolonien: 2.7 ± 1.3
[2]; 0.01 mg daily s.c., colonies on bilateral lung surface
  Lungen-Tumor-Kolonien B-16a-Zellen: 1.7 ± 0.7
[2]; 0.01 mg daily s.c.
  Lungen-Tumor-Kolonien B-16a-Zellen (fraction in brackets): 7/12
[2]; 0.02 mg daily s.c.
  Lungen-Tumor-Kolonien B-16a-Zellen: 2.5 ± 0.9
  Lungen-Tumor-Kolonien B-16a-Zellen (fraction in brackets): 7/12
[2]; 0.04 mg daily s.c.
  Lungen-Tumor-Kolonien B-16a-Zellen: 3.1 ± 0.8
  Lungen-Tumor-Kolonien B-16a-Zellen (fraction in brackets): 8/12
[2]; 0.08 mg daily s.c.
  Lungen-Tumor-Kolonien B-16a-Zellen: 1.4 ± 0.8
  Lungen-Tumor-Kolonien B-16a-Zellen (fraction in brackets): 5/12
